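48-hour exposure; five concentrations; linearly interpolated endpoints. TGI: total growth inhibition.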
Columns and labels:
Assay in all cases: NCI anticancer screen, dose series, 48 h
786-0 renal = tested on: 786-0 renal
A498 renal = tested on: A498 renal
A549 NSCLC = tested on: A549 NSCLC
ACHN renal = tested on: ACHN renal
CAKI-1 renal = tested on: CAKI-1 renal
CCRF-CEM leukemia = tested on: CCRF-CEM leukemia
COLO 205 colon = tested on: COLO 205 colon
DU-145 prostate = tested on: DU-145 prostate
EKVX NSCLC = tested on: EKVX NSCLC
HCC-2998 colon = tested on: HCC-2998 colon
HCT-116 colon = tested on: HCT-116 colon
HCT-15 colon = tested on: HCT-15 colon
HL-60(TB) leukemia = tested on: HL-60(TB) leukemia
HOP-62 NSCLC = tested on: HOP-62 NSCLC
HOP-92 NSCLC = tested on: HOP-92 NSCLC
HT29 colon = tested on: HT29 colon
IGROV1 ovarian = tested on: IGROV1 ovarian
K-562 leukemia = tested on: K-562 leukemia
KM12 colon = tested on: KM12 colon
LOX IMVI melanoma = tested on: LOX IMVI melanoma
M14 melanoma = tested on: M14 melanoma
MALME-3M melanoma = tested on: MALME-3M melanoma
MCF7 breast = tested on: MCF7 breast
MDA-MB-435 = tested on: MDA-MB-435
MDA-N = tested on: MDA-N
MOLT-4 leukemia = tested on: MOLT-4 leukemia
NCI-H226 lung = tested on: NCI-H226 lung
NCI-H23 lung = tested on: NCI-H23 lung
NCI-H460 lung = tested on: NCI-H460 lung
NCI/ADR-RES ovarian = tested on: NCI/ADR-RES ovarian
OVCAR-4 ovarian = tested on: OVCAR-4 ovarian
OVCAR-5 ovarian = tested on: OVCAR-5 ovarian
OVCAR-8 ovarian = tested on: OVCAR-8 ovarian
PC-3 prostate = tested on: PC-3 prostate
RPMI-8226 leukemia = tested on: RPMI-8226 leukemia
RXF 393 renal = tested on: RXF 393 renal
SF-268 CNS = tested on: SF-268 CNS
SF-295 CNS = tested on: SF-295 CNS
SF-539 CNS = tested on: SF-539 CNS
SK-MEL-2 melanoma = tested on: SK-MEL-2 melanoma
SK-MEL-28 melanoma = tested on: SK-MEL-28 melanoma
SK-MEL-5 melanoma = tested on: SK-MEL-5 melanoma
SK-OV-3 ovarian = tested on: SK-OV-3 ovarian
SN12C renal = tested on: SN12C renal
SNB-19 CNS = tested on: SNB-19 CNS
SR leukemia = tested on: SR leukemia
SW-620 colon = tested on: SW-620 colon
T-47D breast = tested on: T-47D breast
TK-10 renal = tested on: TK-10 renal
U251 CNS = tested on: U251 CNS
UACC-257 melanoma = tested on: UACC-257 melanoma
UACC-62 melanoma = tested on: UACC-62 melanoma
UO-31 renal = tested on: UO-31 renal
BT-549 breast = tested on: BT-549 breast
HS 578T breast = tested on: HS 578T breast
MDA-MB-231 breast = tested on: MDA-MB-231 breast
NCI-H522 lung = tested on: NCI-H522 lung
OVCAR-3 ovarian = tested on: OVCAR-3 ovarian
SNB-75 CNS = tested on: SNB-75 CNS

Measured: TGI

CC(=NNC(=S)Nc1ccccc1C)c1cccc(C(C)=NNC(=S)Nc2ccccc2C)n1
59.8 µM: ACHN renal
91.7 µM: OVCAR-4 ovarian
76.9 µM: MALME-3M melanoma
> 100 µM: 786-0 renal | A498 renal | A549 NSCLC | CAKI-1 renal | CCRF-CEM leukemia | COLO 205 colon | DU-145 prostate | EKVX NSCLC | HCC-2998 colon | HCT-116 colon | HCT-15 colon | HL-60(TB) leukemia | HOP-62 NSCLC | HOP-92 NSCLC | HT29 colon | IGROV1 ovarian | K-562 leukemia | KM12 colon | LOX IMVI melanoma | M14 melanoma | MCF7 breast | MDA-MB-435 | MDA-N | MOLT-4 leukemia | NCI-H226 lung | NCI-H23 lung | NCI-H460 lung | NCI/ADR-RES ovarian | OVCAR-5 ovarian | OVCAR-8 ovarian | PC-3 prostate | RPMI-8226 leukemia | RXF 393 renal | SF-268 CNS | SF-295 CNS | SF-539 CNS | SK-MEL-2 melanoma | SK-MEL-28 melanoma | SK-MEL-5 melanoma | SK-OV-3 ovarian | SN12C renal | SNB-19 CNS | SW-620 colon | T-47D breast | TK-10 renal | U251 CNS | UACC-257 melanoma | UACC-62 melanoma | UO-31 renal
12 µM: SR leukemia

CC1C2CC(C(C3C(=O)C4CC3C(C)(C)C4C)C2=O)C1(C)C (configuration not stated)
> 100 µM: 786-0 renal | A498 renal | A549 NSCLC | ACHN renal | BT-549 breast | CAKI-1 renal | CCRF-CEM leukemia | COLO 205 colon | DU-145 prostate | EKVX NSCLC | HCC-2998 colon | HCT-116 colon | HL-60(TB) leukemia | HOP-62 NSCLC | HOP-92 NSCLC | HS 578T breast | HT29 colon | IGROV1 ovarian | K-562 leukemia | KM12 colon | M14 melanoma | MALME-3M melanoma | MCF7 breast | MDA-MB-231 breast | MDA-MB-435 | MDA-N | MOLT-4 leukemia | NCI-H226 lung | NCI-H23 lung | NCI-H460 lung | NCI-H522 lung | OVCAR-3 ovarian | OVCAR-4 ovarian | OVCAR-5 ovarian | OVCAR-8 ovarian | PC-3 prostate | RXF 393 renal | SF-268 CNS | SF-295 CNS | SF-539 CNS | SK-MEL-28 melanoma | SK-MEL-5 melanoma | SK-OV-3 ovarian | SN12C renal | SNB-19 CNS | SNB-75 CNS | SR leukemia | SW-620 colon | T-47D breast | TK-10 renal | U251 CNS | UACC-257 melanoma | UACC-62 melanoma | UO-31 renal

Source: PubChem BioAssay (NCI)
